The results in this text go back to US9024027B2, “Derivatives of 1-phenyl-2-pyridinyl alkyl alcohols as phosphodiesterase inhibitors” (Chiesi Farmaceutici S.p.A., priority 2011, dated 2015).

Each structure is given as a SMILES string. pIC50: −log10 of the molar value. Counter-ions that a name gives are not always drawn.

The experiment relates to LPS-induced TNF-α release in peripheral blood mononuclear cells (PBMCs). As to the kind of experiment: In vitro determination of PDE4 inhibitory activity in the PBMCs assay (LPS-induced TNF-α release). The experiment is classed as cell-based. As to conditions: PBMC; human PBMCs, LPS 3 ng/ml, 18 hours; read-out: PDE4 inhibition (IC50, 50% inhibition of LPS-induced TNF-α release). Here is the method: The assay, which is based on the known inhibitory activity exerted by PDE4 inhibitors on the lipopolyshaccarides (LPS)-induced tumour necrosis factor-alpha (TNF-α release in peripheral blood mononuclear cells (PBMCs), was performed according to a method previously described (Hatzelmann A et al., J. Pharmacol. Exp. Ther., 2001; 297:267-279; and Draheim R et al., J. Pharmacol. Exp. Ther., 2004; 308:555-563, both of which are incorporated herein by reference in their entireties. Cryopreserved human PBMCs, (100 μl/well) were incubated in 96-well plates (10^5 cells/well), for 30 minutes, in the presence or absence (50 microl) of the test compounds whose concentrations ranged from 10^−12 M to 10^−6 M or from 10^−13 M to 10^−7 M. Subsequently, LPS (3 ng/ml) was added. After 18 hours of incubation at 37° C. in a humidified incubator under an atmosphere of 95% air and 5% CO2, culture medium was collected and TNF-α measured by ELISA.
The results of the tested compounds, representatives of the invention, expressed as mean±95% confidence limits of the molar concentration of the test compound producing 50% inhibition of LPS-induced TNF-α release (IC50) are shown in the following Table: […]
`O=C(CN1C(=O)C(=O)c2ccccc21)O[C@@H](Cc1c(Cl)c[n+]([O-])cc1Cl)c1ccc(OC(F)F)c(OCC2CC2)c1` [Compound 25]: the pIC50 (commonly the IC50 on a negative log10 scale, so that one unit is a factor of ten) is more than 9.00.

With `CS(=O)(=O)N(CCN1CCOCC1)c1ccc2c(c1)CC(=O)N2CC(=O)O[C@@H](Cc1c(Cl)c[n+]([O-])cc1Cl)c1ccc(OC(F)F)c(OCC2CC2)c1` [Compound 243, (S)-3,5-dichloro-4-(2-(3-(cyclopropylmethoxy)-4-(difluoromethoxy)phenyl)-2-(2-(5-(N-(2-morpholinoethyl)methylsulfonamido)-2-oxoindolin-1-yl)acetoxy)ethyl)pyridine 1-oxide], the negative logarithm of the IC50 (pIC50) is more than 9.00.

Regarding `CC(=O)N1CCN(CCN(c2ccc3c(c2)C(=O)N(CC(=O)O[C@@H](Cc2c(Cl)c[n+]([O-])cc2Cl)c2ccc(OC(F)F)c(OCC4CC4)c2)C3=O)S(C)(=O)=O)CC1` [Compound 214], the negative logarithm of the IC50 (pIC50) is more than 9.00.

Turning to `CS(=O)(=O)N(CCN1CCOCC1)c1cccc2c1C(=O)N(CC(=O)O[C@@H](Cc1c(Cl)c[n+]([O-])cc1Cl)c1ccc(OC(F)F)c(OCC3CC3)c1)C2=O` [Compound 176, (S)-3,5-dichloro-4-(2-(3-(cyclopropylmethoxy)-4-(difluoromethoxy)phenyl)-2-(2-(4-(N-(2-morpholinoethyl)methylsulfonamido)-1,3-dioxoisoindolin-2-yl)acetoxy)ethyl)pyridine 1-oxide 2,2,2-trifluoroacetic acid salt], the pIC50 is 8.00 to 9.00.

Turning to `CS(=O)(=O)Nc1cn(CC(=O)O[C@@H](Cc2c(Cl)c[n+]([O-])cc2Cl)c2ccc(OC(F)F)c(OCC3CC3)c2)c2ccccc12` [Compound 93, (S)-3,5-dichloro-4-(2-(3-(cyclopropylmethoxy)-4-(difluoromethoxy)phenyl)-2-(2-(3-(methylsulfonamido)-1H-indol-1-yl)acetoxy)ethyl)pyridine 1-oxide], the pIC50 is 8.00 to 9.00. For the compound `CS(=O)(=O)N(Cc1cccnc1)c1ccc2c(c1)C(=O)N(CC(=O)O[C@@H](Cc1c(Cl)c[n+]([O-])cc1Cl)c1ccc(OC(F)F)c(OCC3CC3)c1)C2=O` [Compound 186], the pIC50 is more than 9.00. For `CS(=O)(=O)N(CCN1CCOCC1)c1ccc2c(c1)C(=O)C(=O)N2CC(=O)O[C@@H](Cc1c(Cl)c[n+]([O-])cc1Cl)c1ccc(OC(F)F)c(OCC2CC2)c1` [Compound 240, (S)-3,5-dichloro-4-(2-(3-(cyclopropylmethoxy)-4-(difluoromethoxy)phenyl)-2-(2-(5-(N-(2-morpholinoethyl)methylsulfonamido)-2,3-dioxoindolin-1-yl)acetoxy)ethyl)pyridine 1-oxide], the pIC50 is more than 9.00.

In the case of `Cc1noc(C)c1CN(c1ccc2c(c1)C(=O)N(CC(=O)O[C@@H](Cc1c(Cl)c[n+]([O-])cc1Cl)c1ccc(OC(F)F)c(OCC3CC3)c1)C2=O)S(C)(=O)=O` [Compound 191], the pIC50 was more than 9.00. The result for `CS(=O)(=O)Nc1ccc2c(c1)C(=O)C(=O)N2CC(=O)O[C@@H](Cc1c(Cl)c[n+]([O-])cc1Cl)c1ccc(OC(F)F)c(OCC2CC2)c1` [Compound 99, (S)-3,5-dichloro-4-(2-(3-(cyclopropylmethoxy)-4-(difluoromethoxy)phenyl)-2-(2-(5-(methylsulfonamido)-2,3-dioxoindolin-1-yl)acetoxy)ethyl)pyridine 1-oxide] reads 8.00 to 9.00; that for `CS(=O)(=O)Nc1ccc2c(c1)C(=O)N(CC(=O)O[C@@H](Cc1c(Cl)c[n+]([O-])cc1Cl)c1ccc(OC(F)F)c(OCC3CC3)c1)C2` [Compound 10, (S)-3,5-dichloro-4-(2-(3-(cyclopropylmethoxy)-4-(difluoromethoxy)phenyl)-2-(2-(6-(methylsulfonamido)-1-oxoisoindolin-2-yl)acetoxy)ethyl)pyridine 1-oxide], 8.00 to 9.00; that for `COc1cc2c(cc1OC)CN(CC(=O)O[C@@H](Cc1c(Cl)c[n+]([O-])cc1Cl)c1ccc(OC(F)F)c(OCC3CC3)c1)CC2` [Compound 105, (S)-3,5-dichloro-4-(2-(3-(cyclopropylmethoxy)-4-(difluoromethoxy)phenyl)-2-(2-(6,7-dimethoxy-3,4-dihydroisoquinolin-2(1H)-yl)acetoxy)ethyl)pyridine 1-oxide], more than 9.00. As to `CS(=O)(=O)N(CCN1CCCC1)c1ccc2c(c1)C(=O)N(CC(=O)O[C@@H](Cc1c(Cl)c[n+]([O-])cc1Cl)c1ccc(OC(F)F)c(OCC3CC3)c1)C2=O` [Compound 183], the pIC50 is more than 9.00.

Consider `COc1cc2ccn(CC(=O)O[C@@H](Cc3c(Cl)c[n+]([O-])cc3Cl)c3ccc(OC(F)F)c(OCC4CC4)c3)c2cc1OC` [Compound 54], for which the negative logarithm of the IC50 (pIC50) is 8.00 to 9.00. `COc1ccc2c(c1)C(=O)C(=O)N2CC(=O)O[C@@H](Cc1c(Cl)c[n+]([O-])cc1Cl)c1ccc(OC(F)F)c(OCC2CC2)c1` [Compound 57, (S)-3,5-dichloro-4-(2-(3-(cyclopropylmethoxy)-4-(difluoromethoxy)phenyl)-2-(2-(5-methoxy-2,3-dioxoindolin-1-yl)acetoxy)ethyl)-pyridine 1-oxide]: the pIC50 was more than 9.00. `O=C(Cn1ccc2ccccc21)O[C@@H](Cc1c(Cl)c[n+]([O-])cc1Cl)c1ccc(OC(F)F)c(OCC2CC2)c1` [Compound 14, (S)-4-(2-(2-(1H-indol-1-yl)acetoxy)-2-(3-(cyclopropylmethoxy)-4-(difluoromethoxy)phenyl)ethyl)-3,5-dichloropyridine 1-oxide]: the pIC50 is more than 9.00. The value for `CS(=O)(=O)Nc1ccc2c(c1)CC(=O)N2CC(=O)O[C@@H](Cc1c(Cl)c[n+]([O-])cc1Cl)c1ccc(OC(F)F)c(OCC2CC2)c1` [Compound 112, (S)-3,5-dichloro-4-(2-(3-(cyclopropylmethoxy)-4-(difluoromethoxy)phenyl)-2-(2-(5-(methylsulfonamido)-2-oxoindolin-1-yl)acetoxy)ethyl)pyridine 1-oxide] was more than 9.00; that for `CS(=O)(=O)N(CCN1CCOCC1)c1ccc2c(c1)C(=O)N(CC(=O)O[C@@H](Cc1c(Cl)c[n+]([O-])cc1Cl)c1ccc(OC(F)F)c(OCC3CC3)c1)C2=O` [Compound 182, (S)-3,5-dichloro-4-(2-(3-(cyclopropylmethoxy)-4-(difluoromethoxy)phenyl)-2-(2-(5-(N-(2-morpholinoethyl)methylsulfonamido)-1,3-dioxoisoindolin-2-yl)acetoxy)ethyl)pyridine 1-oxide 2,2,2 trifluoroacetic acid salt] was more than 9.00.

Take `CS(=O)(=O)Nc1cccc2c1ccn2CC(=O)O[C@@H](Cc1c(Cl)c[n+]([O-])cc1Cl)c1ccc(OC(F)F)c(OCC2CC2)c1` [Compound 84, (S)-3,5-dichloro-4-(2-(3-(cyclopropylmethoxy)-4-(difluoromethoxy)phenyl)-2-(2-(4-(methylsulfonamido)-1H-indol-1-yl)acetoxy)-ethyl)pyridine 1-oxide]: the pIC50 is more than 9.00. `O=C(Cn1c(=O)[nH]c2ccccc2c1=O)O[C@@H](Cc1c(Cl)c[n+]([O-])cc1Cl)c1ccc(OC(F)F)c(OCC2CC2)c1` [Compound 30]: the pIC50 is more than 9.00. As to `COc1ccc2c(c1)CC(=O)N2CC(=O)O[C@@H](Cc1c(Cl)c[n+]([O-])cc1Cl)c1ccc(OC(F)F)c(OCC2CC2)c1` [Compound 117, (S)-3,5-dichloro-4-(2-(3-(cyclopropylmethoxy)-4-(difluoromethoxy)phenyl)-2-(2-(5-methoxy-2-oxoindolin-1-yl)acetoxy)-ethyl)pyridine 1-oxide], the pIC50 was more than 9.00.

Take `COCC(=O)Nc1cccc2c1C(=O)N(CC(=O)O[C@@H](Cc1c(Cl)c[n+]([O-])cc1Cl)c1ccc(OC(F)F)c(OCC3CC3)c1)C2=O` [Compound 173, (S)-3,5-dichloro-4-(2-(3-(cyclopropylmethoxy)-4-(difluoromethoxy)phenyl)-2-(2-(4-(2-methoxyacetamido)-1,3-dioxoisoindolin-2-yl)acetoxy)ethyl)pyridine 1-oxide]: the pIC50 is more than 9.00. In the case of `CS(=O)(=O)Nc1ccc2c(c1)CCN2CC(=O)O[C@@H](Cc1c(Cl)c[n+]([O-])cc1Cl)c1ccc(OC(F)F)c(OCC2CC2)c1` [Compound 131, (S)-3,5-dichloro-4-(2-(3-(cyclopropylmethoxy)-4-(difluoromethoxy)phenyl)-2-(2-(5-(methylsulfonamido)indolin-1-yl)acetoxy)-ethyl)pyridine 1-oxide], the pIC50 was 8.00 to 9.00. The value for `CS(=O)(=O)N(CCN1CCCCC1)c1ccc2c(c1)C(=O)N(CC(=O)O[C@@H](Cc1c(Cl)c[n+]([O-])cc1Cl)c1ccc(OC(F)F)c(OCC3CC3)c1)C2=O` [Compound 189, (S)-3,5-dichloro-4-(2-(3-(cyclopropylmethoxy)-4-(difluoromethoxy)phenyl)-2-(2-(1,3-dioxo-5-(N-(2-(piperidin-1-yl)ethyl)methylsulfonamido)isoindolin-2-yl)acetoxy)ethyl)pyridine 1-oxide] was less than 8.00; that for `CS(=O)(=O)Nc1ccc2c(ccn2CC(=O)O[C@@H](Cc2c(Cl)c[n+]([O-])cc2Cl)c2ccc(OC(F)F)c(OCC3CC3)c2)c1` [Compound 76, (S)-3,5-dichloro-4-(2-(3-(cyclopropylmethoxy)-4-(difluoromethoxy)phenyl)-2-(2-(5-(methylsulfonamido)-1H-indol-1-yl)acetoxy)-ethyl)pyridine 1-oxide] was more than 9.00.
